From US11987568B2, “Allosteric inhibitor of WEE1 kinase” (H. LEE MOFFITT CANCER CENTER AND RESEARCH INSTITUTE, INC., priority 2018, dated 2024)
Values joined by “and” are separate entries in the source; they are usually repeats but may differ in a detail not shown here. Identical values can stand only once.

What was measured:
WEE1 protein = assay: Pull-down assay with biotinylated inhibitor on streptavidin beads; format: binding; settings: lysates of transfected HEK293T cells (FIGS. 11C and D)
Method: (§1) FIGS. 11A-11E show direct interaction between inhibitor and WEE1 kinase. […] FIGS. 11C-11E show biotinylated WEIN-159 and WEIN-172 immobilized onto streptavidin beads were incubated with lysates prepared from HEK293T cells transfected with MYC-tagged WEE1 deletion constructs, followed by immunoblotting with MYC antibodies.
(§2) Inhibitory activity of WEIN-159 and WEIN-172 was further validated by examining its direct-binding to WEE1 protein, using a pull-down assay. WEIN-159 and WEIN-172 were attached to biotin molecule (FIG. 10) and then immobilized onto streptavidin beads. Beads were incubated with cell lysate, washed and electrophoresed followed by immunoblottng with WEE1 antibodies.
(§3) To further identify region within WEE1 that may be involved in binding to inhibitor, a deletion strategy was employed wherein three deletions, A-WEE1, B-WEE1 and C-Wee1 were generated which were Myc-tagged (FIG. 11B). Constructs were transfected in HEK293T cells and lysates were incubated with biotin beads with bound WEIN-159 and 172.

WEE1 [1] = molecular target: WEE1 (Homo sapiens, UniProt P30291); assay: as above; format: binding; settings: LNCaP cell lysates, WEE1 immunoblot (FIG. 11A)
WEE1 (Homo sapiens, UniProt P30291), sequence (P30291 whole entry): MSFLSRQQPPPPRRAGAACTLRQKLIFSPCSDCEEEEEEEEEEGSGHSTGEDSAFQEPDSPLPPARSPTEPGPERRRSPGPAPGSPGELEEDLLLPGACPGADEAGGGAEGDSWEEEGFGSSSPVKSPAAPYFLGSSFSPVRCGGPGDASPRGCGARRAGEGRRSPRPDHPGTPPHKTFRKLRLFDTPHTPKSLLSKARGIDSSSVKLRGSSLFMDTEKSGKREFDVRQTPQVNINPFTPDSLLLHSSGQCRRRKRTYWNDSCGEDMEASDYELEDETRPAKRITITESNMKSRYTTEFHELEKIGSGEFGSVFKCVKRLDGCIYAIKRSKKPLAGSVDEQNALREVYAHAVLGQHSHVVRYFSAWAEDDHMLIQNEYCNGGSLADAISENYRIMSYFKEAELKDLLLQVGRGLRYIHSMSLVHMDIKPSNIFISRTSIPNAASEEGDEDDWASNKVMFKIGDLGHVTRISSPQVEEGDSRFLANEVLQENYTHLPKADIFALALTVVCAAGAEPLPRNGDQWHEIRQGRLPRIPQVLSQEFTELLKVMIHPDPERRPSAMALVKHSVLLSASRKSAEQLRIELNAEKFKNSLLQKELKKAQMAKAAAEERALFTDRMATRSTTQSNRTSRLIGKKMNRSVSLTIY
Method: as §1, §2, §3

[2] = test system: histone H2B Tyr37-phopshorylation (pY37-H2B); assay: WEE1 epigenetic activity in cells: pY37-H2B immunoprecipitation/immunoblot; format: cell-based, human; settings: for H2B Tyr37-phopshorylation: 10 μM, 24 hours (FIG. 7A)
From the text: FIGS. 2A-2B show identification of 3 distinct types of inhibitors. […] In addition, the lysates were also subjected to by immunoblotting with pY15-Cdc2 or actin antibodies (middle and bottom panels). […] The number vehicle treated cells were used as control and percent of surviving cells were plotted.
FIGS. 4A-4B show structures of ‘hits’ identified in WEE1 epigenetic inhibitor screen. […] The reaction mix was then subjected to immunoprecipitated with WEE1 antibodies, followed by immunoblotting with pTyr antibodies. […] In addition, the lysates were also subjected to immunoblotting with actin antibodies (bottom panel).
FIGS. 7A-7C show identification of WEIN-159 as a potent WEE1 epigenetic inhibitor. […] In addition, lysates were immunoprecipitated with pY37-H2B antibodies, followed by immunoblotting with H2B antibodies (middle panel). […] The lysates were also subjected to immunoblotting with pY15-Cdc2 antibodies and were immunoprecipitated with pY37-H2B antibodies, followed by immunoblotting with H2B antibodies (middle panels). In addition, the lysates were also subjected to immunoblotting with H2B antibodies (bottom panel). […] The lysates were also subjected to immunoblotting with pY15-Cdc2 antibodies and were immunoprecipitated with pY37-H2B antibodies, followed by immunoblotting with H2B antibodies (middle panels). In addition, the lysates were also subjected to immunoblotting with actin antibodies (bottom panel).
Identification of compounds with WEE1 epigenetic inhibitory role: 14 ‘hits’ that were identified in the screen are shown in FIG. 1. These compounds were further tested for their ability to inhibit WEE1 epigenetic activity. Prostate cancer derived LNCaP cells were treated with 3 uM of compounds for 48 hours. Cells were harvested, lysates were prepared, and WEE1 epigenetic activity was detected by determining histone H2B Tyr37-phopshorylation (pY37-H2B). Lysates were also assessed for WEE1 cell cycle inhibitory activity by determining Cdc2 Tyr15-phosphorylation (pY15-Cdc2). […] These are named as ‘Cell Cycle’ inhibitors. […] These compounds are the ‘Epigenetic’ inhibitors.

WEE1 [3] = assay: Endogenous WEE1 auto-phosphorylation in cells (WEE1 IP, pTyr immunoblot); format: cell-based, human; settings: LNCaP and melanoma cell line B16, 10 μM, 24 hours (FIGS. 7B and C)
Method: The reaction mix was then subjected to immunoprecipitated with WEE1 antibodies, followed by immunoblotting with pTyr antibodies (top panel). As a control, purified ACK1 protein was incubated in the reaction buffer containing ATP, in presence of 100 nM epigenetic inhibitors. The reaction mix was then subjected to immunoprecipitated with ACK1 antibodies, followed by immunoblotting with pTyr antibodies (bottom panel). […] In addition, the lysates were also subjected to immunoblotting with actin antibodies (bottom panel). […] In addition, the lysates were also subjected to immunoblotting with actin antibodies (bottom panel). […] In addition, the lysates were also subjected to immunoblotting with actin antibodies (bottom panel). To determine direct binding of these compounds causing WEE1 inhibition, a full length WEE1 kinase protein was incubated with the compounds. […] These inhibitors were further validated by assessing their ability to suppress endogenous WEEE activity; LNCaP cells were treated with 10 μM of these compounds overnight.

[4] = test system: Cdc2 Tyr15-phosphorylation (pY15-Cdc2); assay: WEE1 cell cycle inhibitory activity in cells: pY15-Cdc2 immunoblot; format: cell-based, human; settings: for Cdc Tyr-phopshorylation: 10 μM, 24 hours (FIG. 7A)
From the text: FIGS. 2A-2B show identification of 3 distinct types of inhibitors. […] In addition, the lysates were also subjected to by immunoblotting with […]-Cdc2 or actin antibodies (middle and bottom panels). […] The number vehicle treated cells were used as control and percent of surviving cells were plotted. […] In addition, the lysates were also subjected to immunoblotting with actin antibodies (bottom panel). Identification of compounds with WEE1 epigenetic inhibitory role: 14 'hits' that were identified in the screen are shown in FIG. 1. These compounds were further tested for their ability to inhibit WEE1 epigenetic activity. Prostate cancer derived LNCaP cells were treated with 3 uM of compounds for 48 hours. […] Lysates were also assessed for WEE1 cell cycle inhibitory activity by determining Cdc2 Tyr15-phosphorylation ([…]-Cdc2). […] These are named as 'Cell Cycle' inhibitors. […] These compounds are the 'Epigenetic' inhibitors.

LNCaP cells = assay: Cell cycle analysis by propidium iodide staining; format: cell-based, human; settings: 16 hours
Method: To further validate this observation, LNCaP cells were treated with WEIN-159 and 172 for 16 hours and cell cycle analysis was performed by propidium iodide staining.

global histone levels = assay: Global histone expression, qRT-PCR; format: cell-based, human; settings: LNCaP 5 or 10 uM 16 hr; LAPC4 3.5 uM 48 hr
From the text: FIGS. 8A-8B show inhibition of WEE1 epigenetic activity lead to increased global histone expression. […] Total RNA was isolated followed by qRT-PCR with histone H3 and actin primers. […] Total RNA was isolated followed by qRT-PCR with histone H3 and actin primers.
WEIN-159 and WEIN-172 were further assessed by treatment of LNCaP and melanoma cell line B16, followed by determination of WEE1, H2B and Cdc Tyr-phopshorylation.

[5] = test system: global histone H3K18, H3K12 and H3K9 and H4K5 acetylation; assay: Global histone acetylation after treatment; format: cell-based
From the text: FIGS. 15A-15B show restoration of H3K18 epigenetic marks by epigenetic inhibitor of WEE1 kinase.
FIGS. 16A-16D show restoration of H4K5 and H3K12 epigenetic marks by epigenetic inhibitor of WEE1 kinase.
Global upregulation of histone H3K18 and H3K12 acetylation upon WEIN-159 treatment: To further examine the effect of WEE1 inhibition, global histone H3K18, H3K12 and H3K9 and H4K5 acetylation was examined following WEIN-159 and WEIN-172 treatment. […] In contrast, H3K9 acetylation levels were not affected.

[6] = molecular target: full length human WEE1 kinase (Homo sapiens, UniProt P30291); assay: ELISA based assay: WEE1 phosphorylation of biotinylated H2B peptide spanning Tyr37; format: biochemical; design: A full length human WEE1 kinase that was enzymatically active was purified from insect cell; ELISA assay % Inhibition: concentration or dose not given beside the values; settings: for ELISA assay % Inhibition: Table 3, No peptide = 100, No inhibitor = 0
full length human WEE1 kinase, sequence (P30291 whole entry): as above
From the text: Designing of a Novel inhibitor Screening Platform: […] A full length human WEE1 kinase that was enzymatically active was purified from insect cell. […] NCI diversity set compound library ( 1600 compounds) was used for the screening.

Wee2 KD = molecular target: T1, Wee2 KD (Homo sapiens, UniProt P0C1S8); assay: Differential Scanning Fluorimetry (DSF), Wee2 KD; format: binding; settings: kinase domain purified from HEK293T cells
T1 construct: WEE1 & WEE2 (as control) kinase domains from mammalian cells (HEK293T cells) were purified
T1 sequence (P0C1S8 212-486): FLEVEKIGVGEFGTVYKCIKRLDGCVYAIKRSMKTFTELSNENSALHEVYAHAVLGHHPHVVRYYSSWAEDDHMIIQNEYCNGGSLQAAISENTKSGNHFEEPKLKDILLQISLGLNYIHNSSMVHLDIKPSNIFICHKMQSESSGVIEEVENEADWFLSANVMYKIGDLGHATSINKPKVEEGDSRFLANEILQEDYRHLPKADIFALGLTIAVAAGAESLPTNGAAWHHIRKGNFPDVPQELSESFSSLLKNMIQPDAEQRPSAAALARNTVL
Method: (§4) Binding study of WEE1 epigenetic inhibitors: To identify the precise binding region/domain of WEE1 epigenetic inhibitors, WEE1 & WEE2 (as control) kinase domains from mammalian cells (HEK293T cells) were purified. The binding of inhibitors was assessed using Differential Scanning Fluorimetry (DSF).

Wee1 KD = molecular target: T2, Wee1 KD (Homo sapiens, UniProt P30291); assay: Differential Scanning Fluorimetry (DSF), Wee1 KD; format: binding; settings: kinase domain purified from HEK293T cells
T2 construct: WEE1 & WEE2 (as control) kinase domains from mammalian cells (HEK293T cells) were purified
T2 sequence (P30291 299-569): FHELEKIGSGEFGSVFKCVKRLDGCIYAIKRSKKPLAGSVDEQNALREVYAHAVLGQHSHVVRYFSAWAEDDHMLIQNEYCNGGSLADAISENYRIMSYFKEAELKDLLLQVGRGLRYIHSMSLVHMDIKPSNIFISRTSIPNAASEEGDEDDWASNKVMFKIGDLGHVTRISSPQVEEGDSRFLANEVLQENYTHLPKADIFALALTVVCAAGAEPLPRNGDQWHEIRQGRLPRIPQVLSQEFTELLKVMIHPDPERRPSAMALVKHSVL
Method: as §4

gamma-H2AX = assay: DNA damage, gamma-H2AX immunoblot in LNCaP cells; format: cell-based, human; settings: 3 μM, 12 hours (FIG. 3C)
Method: The reaction mix was then subjected to immunoprecipitated with WEE1 antibodies, followed by immunoblotting with pTyr antibodies (top panel). As a control, purified ACK1 protein was incubated in the reaction buffer containing ATP, in presence of 100 nM epigenetic inhibitors. The reaction mix was then subjected to immunoprecipitated with ACK1 antibodies, followed by immunoblotting with pTyr antibodies (bottom panel). […] In addition, the lysates were also subjected to immunoblotting with actin antibodies (bottom panel). […] In addition, the lysates were also subjected to immunoblotting with actin antibodies (bottom panel).
H2AX becomes phosphorylated on serine 139, called gamma-H2AX, is a marker of DNA damage as it localizes to sites of DNA strand breaks. This sensor then functions to trigger activation of the DNA damage response pathways. To assess whether any of the epigenetic inhibitors are potent DNA-damaging agents, cells were treated with the compounds followed by immunoblotting with gamma-H2AX antibodies.

LAPC4 cells = assay: LAPC4 cell proliferation, trypan blue exclusion assay; format: cell-based; settings: Homo sapiens, 96 hr, viable cells by trypan blue exclusion
From the text: FIGS. 2A-2B show identification of 3 distinct types of inhibitors. […] In addition, the lysates were also subjected to by immunoblotting with […]-Cdc2 or actin antibodies (middle and bottom panels). […] The number vehicle treated cells were used as control and percent of surviving cells were plotted. […] The number of vehicle treated cells were used as control and percent of surviving cells were plotted. […] The number vehicle treated cells were used as control and percent of surviving cells were plotted. 7 of these epigenetic inhibitors in various assays such as cell proliferation assay, an in vitro kinase assay were performed and WEE1 autophosphorylation in vivo was determined. Prostate cancer derived LAPC4 cells were treated with inhibitors and its effect on cell proliferation was examined.

[7] = LNCaP and melanoma cell line B16, 10 μM, 24 hours (FIGS. 7B and C)
[8] = LNCaP cells, 3 uM, 48 hours (FIG. 2A)

Structure (SMILES): Cl.Nc1cccc(NC(=O)c2ccc(C(=O)Nc3cccc(N)c3)s2)c1 [WEIN-172]
- binding to MYC-tagged WEE1 deletion constructs (WEE1 protein): only full length WEE1 interacted with inhibitor
- binding of WEE1 protein to biotinylated inhibitor on streptavidin beads (WEE1 [1]): to lesser extent
- H2B Tyr-phopshorylation [2, 7]: significant loss of WEE1 and H2B Tyr-phopshorylation
- H2B Tyr37-phopshorylation ([2]; LNCaP cells): almost complete loss of H2B Tyr37-phopshorylation
- WEE1 Tyr-phopshorylation (WEE1 [3]): significant loss of WEE1 and H2B Tyr-phopshorylation
- Cdc Tyr15-phopshorylation [4, 7]: remained unaffected
- Cdc Tyr-phopshorylation ([4]; LNCaP cells): unaffected
- Cell Cycle Analysis G1 (LNCaP cells): 56.53
- Cell Cycle Analysis G2/M (LNCaP cells): 16.29
- Cell Cycle Analysis S (LNCaP cells): 27.18
- global histone levels (real time PCR of H3 and H2B) (global histone levels): significant increase in global histone levels
- H3K9 acetylation levels [5]: not affected
- H3K18 acetylation ([5]; FIG. 15): significant increase in H3K18 acetylation
- H3K12 acetylation ([5]; FIGS. 16 A and B): significant increase
- H4K5 acetylation ([5]; FIGS. 16A and C): significant increase
- ELISA assay % Inhibition [6]: 112%

Structure (SMILES): C=CCn1c(=O)c2cnc(Nc3ccc(N4CCN(C)CC4)cc3)nc2n1-c1cccc(C(C)(C)O)n1 [AZD-1775, reference compound]
- H2B Tyr37-phosphorylation (pY37-H2B) [2, 8]: loss of both H2B and Cdc2-phosphorylation
- ΔTm for Wee2 KD (° C.) (Wee2 KD): 11.9 °C
- Cdc2 Tyr15-phosphorylation (pY15-Cdc2) [4, 8]: loss of both H2B and Cdc2-phosphorylation
- ΔTm for Wee1 KD (° C.) (Wee1 KD): 16.2 °C
- Cell Cycle Analysis G1 (LNCaP cells): 56.51
- Cell Cycle Analysis G2/M (LNCaP cells): 4.27
- Cell Cycle Analysis S (LNCaP cells): 39.22
- DNA damage (gamma-H2AX) (gamma-H2AX): intensified double-strand DNA breakage
- ELISA assay % Inhibition [6]: 54%
- IC50 (LAPC4 cells): 350 nM

Structure (SMILES): Nc1ccc(NC(=O)c2ccc(C(=O)Nc3ccc(N)cc3)o2)cc1 [SG5-111, N^2,N^5-bis(4-aminophenyl)furan-2,5-dicarboxamide]
- H2B Tyr37-phopshorylation ([2]; LNCaP cells): almost complete loss of H2B Tyr37-phopshorylation
- Cdc Tyr-phopshorylation ([4]; LNCaP cells): unaffected
- ELISA Inhibition (%) ([6]; Table 1, several values in a cell are repeat determinations): 46% and 55%
